This passage reports IC50 and EC50 results from patent US9815854B2, “3-(3H-imidazo[4,5-B]pyridin-2-yl)-1H-pyrazolo[3,4-C]pyridine and therapeutic uses thereof” (Samumed, LLC, priority 2014, dated 2017).

One experiment concerns Wnt activity (Sp5-Luc reporter, TCF/LEF binding sites) in SW480 colon carcinoma cells. Put plainly: Sp5-Luc Wnt reporter gene screening assay in SW480 colon carcinoma cells. The class given is cell-based, human.
Details: not given
The text has this: The screening assay for Wnt activity is described as follows. Reporter cell lines can be generated by stably transducing cancer cell lines (e.g., colon cancer) or primary cells (e.g., IEC-6 intestinal cells) with a lentiviral construct that includes a Wnt-responsive promoter driving expression of the firefly luciferase gene.
SW480 colon carcinoma cells were transduced with a lentiviral vector expressing luciferase with a human Sp5 promoter consisting of a sequence of eight TCF/LEF binding sites. SW480 cells stably expressing the Sp5-Luc reporter gene and a hygromycin resistance gene were selected by treatment with 150 μg/ml of hygroinycin for 7 days. These stably transduced SW480 cells were expanded in cell culture and used for all further screening activities. For Sp5-Luc reporter gene assays, the cells were plated at 10,000 cells/well in 96-well plates with growth medium containing 10% fetal calf serum and incubated overnight at 37° C. and 5% CO2. Each compound was dissolved in DMSO as a 10 mM stock in standard j-vials and used to prepare compound source plates in dose-response format with 3-fold serial dilutions and a 10 mM top concentration. Compound transfer from serially diluted source plates to assay plates containing the cells was accomplished using a pintool (Multimek 96, Beckman equipped with V&P Scientific FP1S50H pins) based liquid handling protocol. This protocol used a slotted pin to transfer 50 nl of compound from a source plate well to an assay plate well containing 50 μl of cells in growth medium. […] Control wells received 50 nl of DMSO treatment for nommlization and calculating IC50 values. The treated cells were incubated at 37° C. and 5% CO2 for an additional forty-two hours. Following incubation, the growth medium was removed and 50 μl of BrightGlo luminescence reagent (Promega) was added to each well of the 96-well assay plates. The plates were placed on an orbital shaker for 5 min and then luminescence was quantified on the Victor3 (Perkin Elmer) plate reader. Readings were normalized to DMSO only treated cells, and normalized activities were utilized for IC50 calculations using the dose-response log (inhibitor) vs. response—variable slope (four parameters) nonlinear regression feature available in GraphPad Prism 5.0 or 6.0.
By IC50 is commonly meant the point on the concentration scale where inhibition reaches its midpoint. The molecule `Fc1cccc(-c2ccnc3[nH]c(-c4n[nH]c5cnc(-c6ccncc6)cc45)nc23)c1` [Compound 952, -(7-(3-Fluorophenyl)-3H-imidazo[4,5-b]pyridin-2-yl)-5-(pyridin-4-yl)-1 H-pyrazolo[3,4-c]pyridine] registered an IC50 above 1 µM.

As for `CC(C)CC(=O)Nc1cncc(-c2cc3c(-c4nc5c(-c6cc(F)cc(OCCN(C)C)c6)ccnc5[nH]4)n[nH]c3cn2)c1` [Compound 1262], the IC50 was above 10 µM.

The same experiment, now with this note: Homo sapiens.
`CN(C)c1cncc(-c2cc3c(-c4nc5c(-c6cccc(F)c6)ccnc5[nH]4)n[nH]c3cn2)c1` [Compound 7, 5-(3-(7-(3-Fluorophenyl)-3H-imidazo[4,5-b]pyridin-2-yl)-1H-pyrazolo[3,4-c]pyridin-5-yl)-N,N-dimethylpyridin-3-amine] showed an IC50 of 0.0854 µM.

Turning to `CC(C)(C)C(=O)Nc1cncc(-c2cc3c(-c4nc5c(-c6cccc(F)c6)ccnc5[nH]4)n[nH]c3cn2)c1` [Compound 8, N-(5-(3-(7-(3-Fluorophenyl)-3H-imidazo[4,5-b]pyridin-2-yl)-1H-pyrazolo[3,4-c]pyridin-5-yl)pyridin-3-yl)pivalamide], the IC50 came to 0.155 µM.

In turn, `CC(C)C(=O)Nc1cncc(-c2cc3c(-c4nc5c(-c6ccccc6F)ccnc5[nH]4)n[nH]c3cn2)c1` [Compound 61, N-(5-(3-(7-(2-Fluorophenyl)-3H-imidazo[4,5-b]pyridin-2-yl)-1H-pyrazolo[3,4-c]pyridin-5-yl)pyridin-3-yl)isobutyramide] gave an IC50 of 0.0778 µM.

Regarding `c1cncc(-c2ccnc3[nH]c(-c4n[nH]c5cnc(-c6cncc(CN7CCCCC7)c6)cc45)nc23)c1` [Compound 93, 5-(5-(Piperidin-1-ylmethyl)pyridin-3-yl)-3-(7-(pyridin-3-yl)-3H-imidazo[4,5-b]pyridin-2-yl)-1H-pyrazolo[3,4-c]pyridine], the IC50 is above 10 µM.

Consider `CN(C)c1cncc(-c2cc3c(-c4nc5c(N6CCCCC6)ccnc5[nH]4)n[nH]c3cn2)c1` [Compound 163, N,N-Dimethyl-5-(3-(7-(piperidin-1-yl)-3H-imidazo[4,5-b]pyridin-2-yl)-1H-pyrazolo[3,4-c]pyridin-5-yl)pyridin-3-amine], for which the IC50 was determined as 1.03 µM.

Molecule `CC(C)(C)C(=O)Nc1cncc(-c2cc3c(-c4nc5c(-c6ccc(F)s6)ccnc5[nH]4)n[nH]c3cn2)c1` [Compound 346, N-(5-(3-(7-(5-Fluorothiophen-2-yl)-3H-imidazo-[4,5-b]pyridin-2-yl)-1H-pyrazolo[3,4-c]pyridin-5-yl)pyridin-3-yl)pivalamide] gave an IC50 of 0.0621 µM.

Regarding `Fc1ccc(-c2ccnc3[nH]c(-c4n[nH]c5cnc(-c6cncc(CN7CCCC7)c6)cc45)nc23)s1` [Compound 352, 3-(7-(5-Fluorothiophen-2-yl)-3H-imidazo[4,5-b]pyridin-2-yl)-5-(5-(pyrrolidin-1-ylmethyl)pyridin-3-yl)-1H-pyrazolo[3,4-c]pyridine], the IC50 was found to be 0.156 µM.

Turning to `CCNCc1cncc(-c2cc3c(-c4nc5c(-c6cc(F)cc(NCCN(C)C)c6)ccnc5[nH]4)n[nH]c3cn2)c1` [Compound 448, N^1-(3-(2-(5-(5-((Ethylamino)methyl)pyridin-3-yl)-1H-pyrazolo[3,4-c]pyridin-3-yl)-3H-imidazo[4,5-b]pyridin-7-yl)-5-fluorophenyl)-N^2,N^2-dimethylethane-1,2-diamine], the IC50 is above 10 µM.

Take `CCCCC(=O)Nc1cncc(-c2cc3c(-c4nc5c(-c6cc(F)cc(NCCN(C)C)c6)ccnc5[nH]4)n[nH]c3cn2)c1` [Compound 460]: the IC50 came out at 0.139 µM.

As for `Fc1cccc(-c2ccnc3[nH]c(-c4n[nH]c5cnc(C6CCNCC6)cc45)nc23)c1` [Compound 937, 3-(7-(3-Fluorophenyl)-3H-imidazo[4,5-b]pyridin-2-yl)-5-(piperidin-4-yl)-1H-pyrazolo[3,4-c]pyridine], the 50% inhibitory concentration (IC50) was 1.86 µM.

Take `Fc1cccc(-c2ccnc3[nH]c(-c4n[nH]c5cnc(C6=CCNCC6)cc45)nc23)c1` [Compound 938, 3-(7-(3-Fluorophenyl)-3H-imidazo[4,5-b]pyridin-2-yl)-5-(1,2,3,6-tetrahydropyridin-4-yl)-1H-pyrazolo[3,4-c]pyridine]: the IC50 was above 1 µM.

In turn, `Fc1cccc(-c2ccnc3[nH]c(-c4n[nH]c5cnc(-c6cncc(OC7CCCCC7)c6)cc45)nc23)c1` [Compound 943, 5-(5-(Cyclohexyloxy)pyridin-3-yl)-3-(7-(3-fluorophenyl)-3H-imidazo[4,5-b]pyridin-2-yl)-1H-pyrazolo[3,4-c]pyridine] registered an IC50 of 0.95 µM.

Consider `Fc1cccc(-c2ccnc3[nH]c(-c4n[nH]c5cnc(-c6cncc(OC7CCNCC7)c6)cc45)nc23)c1` [Compound 944, 3-(7-(3-Fluorophenyl)-3H-imidazo[4,5-b]pyridin-2-yl)-5-(5-(piperidin-4-yloxy)pyridin-3-yl)-1H-pyrazolo[3,4-c]pyridine], for which the IC50 was above 10 µM.

For `Fc1cccc(-c2ccnc3[nH]c(-c4n[nH]c5cnc(-c6cncc(OCCN7CCCC7)c6)cc45)nc23)c1` [Compound 946, 3-(7-(3-Fluorophenyl)-3H-imidazo[4,5-b]pyridin-2-yl)-5-(5-(2-(pyrrolidin-1-yl)ethoxy)pyridin-3-yl)-1H-pyrazolo[3,4-c]pyridine], the IC50 was above 10 µM.

`Fc1cccc(-c2ccnc3[nH]c(-c4n[nH]c5cnc(-c6cncc(OCc7ccccc7)c6)cc45)nc23)c1` [Compound 950, 5-(5-(Benzyloxy)pyridin-3-yl)-3-(7-(3-fluorophenyl)-3H-imidazo[4,5-b]pyridin-2-yl)-1H-pyrazolo[3,4-c]pyridine] returned an IC50 of 4.43 µM.

In turn, `O=C(CC1CCCCC1)Nc1cncc(-c2cc3c(-c4nc5c(-c6cccc(F)c6)ccnc5[nH]4)n[nH]c3cn2)c1` [Compound 951, 2-Cyclohexyl-N-(5-(3-(7-(3-fluorophenyl)-3H-imidazo[4,5-b]pyridin-2-yl)-1H-pyrazolo[3,4-c]pyridin-5-yl)pyridin-3-yl)acetamide] showed an IC50 above 10 µM.

In turn, `CC(C)CC(=O)Nc1cncc(-c2cc3c(-c4nc5c(-c6cc(O)cc(F)c6)ccnc5[nH]4)n[nH]c3cn2)c1` [Compound 1350, N-(5-(3-(7-(3-Fluoro-5-hydroxyphenyl)-3H-imidazo[4,5-b]pyridin-2-yl)-1H-pyrazolo[3,4-c]pyridin-5-yl)pyndin-3-yl)-3-methylbutanamide] yielded an IC50 of 0.253 µM.

Consider `CN(C)CC(=O)Nc1cncc(-c2cc3c(-c4nc5c(-c6cccc(F)c6)ccnc5[nH]4)n[nH]c3cn2)c1` [Compound 1437, 2-(Dimethylamino)-N-(5-(3-(7-(3-fluorophenyl)-3H-imidazo[4,5-b]pyridin-2-yl)-1H-pyrazolo[3,4-c]pyridin-5-yl)pyridin-3-yl)acetamide], for which the IC50 came to 0.646 µM.

The subject of the next experiment is primary human fibroblasts derived from IPF patients (LL29 cells). The experiment in a line: Inhibition of the fibrotic process in TGF-β1-treated primary human fibroblasts from IPF patients (αSMA staining). The note with it: Fibroblast, 96 h, TGF-β1 20 ng/mL, 4 days, read-out: Inhibition of fibrosis EC50. The class given is cell-based. The text has this:
The above synthesized compounds were screened using primary human fibroblasts (derived from IPF patients) treated with TGF-β1 to determine their ability to inhibit the fibrotic process.
Human Fibroblast Celt Culture: Primary human fibroblasts derived from IPF patients (LL29 cells) [^1Xiaoqiu Liu, et.al., “Fibrotic Luna Fibroblasts Show Blunted Inhibition by cAMP Due to Deficient cAMP Response Element-Binding Protein Phosphorylation”, Journal of Pharmacology and Experimental Therapeutics (2005), 315(2), 678-687; ^2Watts, K. L., et.al., “RhoA signaling modulates cyclin D1 expression in human lung fibroblasts; implications for idiopathic pulmonary fibrosis”, Respiratory Research (2006), 7(1), 88] were obtained from American Type Culture Collection (ATCC) and expanded in F12 medium supplemented with 15% Fetal Bovine Serum and Penicillin/Streptomycin.
Compound Screening: Each compound was dissolved in DMSO as a 10 mM stock and used to prepare compound source plates. Serial dilution (1:2, 11-point dose-response curves from 10 μM to […]) and compound transfer was performed using the ECHO 550 (Lahcyte, Sunnyvale, Calif.) into 384-well clear bottom assay plates (Greiner Bio-One) with appropriate DMSO backfill fhr a final DMSO concentration of 0.1%. LL29 cells were plated at 1,500 cells/well in 80 μl/well F12 medium supplemented with 1% Fetal Bovine Serum. One hour after addition of the cells. TGF-β1 (Peprotech; 20 ng/mL) was added to the plates to induce fibrosis (ref. 1 and 2 above), Wells treated with TGF-β1 and containing DMSO were used as controls. Cells were incubated at 37° C. and 5% CO2 for 4 days. Following incubation for 4 days, SYTOX green nucleic acid stain (Life Technologies [Thermo Fisher Scientific]) was added to the wells at a final concentration of 1 uM and incubated at room temperature for 30 min. Cells were then fixed using 4% formaldehyde (Electron Microscopy Sciences), washed 3 times with PBS followed by blocking and penneabilization using 3% Bovine Serum Albumin (BSA; Sigma) and 0.3% Triton X-100 (Sigma) in PBS. Cells were then stained with antibody specific to α-smooth muscle actin (αSMA; Abeam) (ref 1 and 2 above) in 3% Bovine Serum Albumin (BSA; Sigma) and 0.3% Triton X-100 (Sigma) in PBS, and incubated overnight at 4° C. Cells were then washed 3 times with PBS, followed by incubation with Alexa Flor-647 conjugated secondary antibody (Life Technologies [Thermo Fisher Scientific]) and DAPI at room temperature for 1 hour, Cells were then washed 3 times with PBS and plates were sealed for imaging. αSMA staining was imaged by excitation at 630 nm and emission at 665 nm and quantified using the Compartmental Analysis program on the CellInsight CX5 (Thermo Scientific). Dead or apoptotic cells were excluded from analysis based on positive SYTOX green staining. % of total cells positive for αSMA were counted in each well and normalized to the average of 11 wells treated with TGF-β1 on the same plate using Dotmatics' Studies Software. The normalized averages (fold change over untreated) of 3 replicate wells for each compound concentration were used to create dose-responses curves and EC50 values were calculated using non-linear regression curve fit in the Dotmatics' Studies Software. The EC50 values are reported.
The EC50 is the concentration that produces a half-maximal response. With `CN(C)c1cncc(-c2cc3c(-c4nc5c(-c6cccc(F)c6)ccnc5[nH]4)n[nH]c3cn2)c1` [Compound 7, 5-(3-(7-(3-Fluorophenyl)-3H-imidazo[4,5-b]pyridin-2-yl)-1H-pyrazolo[3,4-c]pyridin-5-yl)-N,N-dimethylpyridin-3-amine], the EC50 is 0.406 µM.

Regarding `CC(C)(C)C(=O)Nc1cncc(-c2cc3c(-c4nc5c(-c6cccc(F)c6)ccnc5[nH]4)n[nH]c3cn2)c1` [Compound 8, N-(5-(3-(7-(3-Fluorophenyl)-3H-imidazo[4,5-b]pyridin-2-yl)-1H-pyrazolo[3,4-c]pyridin-5-yl)pyridin-3-yl)pivalamide], the EC50 was 0.075 µM.
